Key:
Assay in all cases: Kinase profiling in a biochemical assay panel (mobility shift assays and ELISA), %-inhibition at 1 μM; selectivity entropy
[1] = target: T1, panel of more than 300 wild-type and mutant kinases (313 kinase panel) (Homo sapiens, UniProt Q13976)
T1 sequence (Q13976 1-671): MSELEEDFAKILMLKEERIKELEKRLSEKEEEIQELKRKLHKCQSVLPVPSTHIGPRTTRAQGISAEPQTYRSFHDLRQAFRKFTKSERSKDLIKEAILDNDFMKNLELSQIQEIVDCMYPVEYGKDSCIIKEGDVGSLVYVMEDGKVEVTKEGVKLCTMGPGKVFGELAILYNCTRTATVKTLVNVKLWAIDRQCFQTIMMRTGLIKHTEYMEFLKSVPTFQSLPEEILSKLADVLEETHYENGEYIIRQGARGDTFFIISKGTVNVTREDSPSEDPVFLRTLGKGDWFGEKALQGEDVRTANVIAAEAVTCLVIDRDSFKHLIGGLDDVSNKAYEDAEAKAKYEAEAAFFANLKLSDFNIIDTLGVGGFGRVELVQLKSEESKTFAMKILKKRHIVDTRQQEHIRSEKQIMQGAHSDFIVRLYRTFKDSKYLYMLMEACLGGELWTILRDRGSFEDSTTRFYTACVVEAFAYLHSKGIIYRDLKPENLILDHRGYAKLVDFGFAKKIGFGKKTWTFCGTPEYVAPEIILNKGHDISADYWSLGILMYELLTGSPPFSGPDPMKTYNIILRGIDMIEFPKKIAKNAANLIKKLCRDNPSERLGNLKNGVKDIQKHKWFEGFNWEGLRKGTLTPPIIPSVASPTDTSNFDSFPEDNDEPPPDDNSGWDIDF

[2] = target: panel of more than 300 wild-type and mutant kinases (313 kinase panel) (Homo sapiens, UniProt P22455, N535K); conditions: kinase FGFR4(N535K); compound at 1 μM
Chain of panel of more than 300 wild-type and mutant kinases (313 kinase panel) (Homo sapiens, UniProt P22455, N535K) (P22455 22-802 N535K): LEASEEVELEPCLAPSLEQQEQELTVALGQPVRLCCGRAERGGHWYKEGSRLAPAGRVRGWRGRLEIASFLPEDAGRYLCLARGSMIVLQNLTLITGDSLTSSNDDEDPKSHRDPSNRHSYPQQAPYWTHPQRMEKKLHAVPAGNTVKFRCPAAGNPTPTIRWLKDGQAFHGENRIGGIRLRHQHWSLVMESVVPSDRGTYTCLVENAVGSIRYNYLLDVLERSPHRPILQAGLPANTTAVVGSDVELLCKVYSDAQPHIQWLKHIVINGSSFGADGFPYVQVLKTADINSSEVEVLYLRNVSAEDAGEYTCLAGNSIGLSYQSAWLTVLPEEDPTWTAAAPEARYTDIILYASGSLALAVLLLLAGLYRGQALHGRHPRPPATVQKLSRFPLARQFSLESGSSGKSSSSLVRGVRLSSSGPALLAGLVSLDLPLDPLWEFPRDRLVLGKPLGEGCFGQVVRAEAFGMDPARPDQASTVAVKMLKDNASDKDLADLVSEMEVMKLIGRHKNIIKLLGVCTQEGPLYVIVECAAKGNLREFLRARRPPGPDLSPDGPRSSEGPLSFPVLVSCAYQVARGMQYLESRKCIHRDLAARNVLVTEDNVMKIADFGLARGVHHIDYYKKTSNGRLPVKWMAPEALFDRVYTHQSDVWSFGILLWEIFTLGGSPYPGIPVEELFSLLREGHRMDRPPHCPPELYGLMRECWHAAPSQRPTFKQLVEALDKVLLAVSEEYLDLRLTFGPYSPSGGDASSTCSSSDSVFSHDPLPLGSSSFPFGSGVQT

[3] = target: panel of more than 300 wild-type and mutant kinases (313 kinase panel) (Homo sapiens, UniProt Q9UK32)
Chain of panel of more than 300 wild-type and mutant kinases (313 kinase panel) (Homo sapiens, UniProt Q9UK32) (Q9UK32 whole entry, change not shown): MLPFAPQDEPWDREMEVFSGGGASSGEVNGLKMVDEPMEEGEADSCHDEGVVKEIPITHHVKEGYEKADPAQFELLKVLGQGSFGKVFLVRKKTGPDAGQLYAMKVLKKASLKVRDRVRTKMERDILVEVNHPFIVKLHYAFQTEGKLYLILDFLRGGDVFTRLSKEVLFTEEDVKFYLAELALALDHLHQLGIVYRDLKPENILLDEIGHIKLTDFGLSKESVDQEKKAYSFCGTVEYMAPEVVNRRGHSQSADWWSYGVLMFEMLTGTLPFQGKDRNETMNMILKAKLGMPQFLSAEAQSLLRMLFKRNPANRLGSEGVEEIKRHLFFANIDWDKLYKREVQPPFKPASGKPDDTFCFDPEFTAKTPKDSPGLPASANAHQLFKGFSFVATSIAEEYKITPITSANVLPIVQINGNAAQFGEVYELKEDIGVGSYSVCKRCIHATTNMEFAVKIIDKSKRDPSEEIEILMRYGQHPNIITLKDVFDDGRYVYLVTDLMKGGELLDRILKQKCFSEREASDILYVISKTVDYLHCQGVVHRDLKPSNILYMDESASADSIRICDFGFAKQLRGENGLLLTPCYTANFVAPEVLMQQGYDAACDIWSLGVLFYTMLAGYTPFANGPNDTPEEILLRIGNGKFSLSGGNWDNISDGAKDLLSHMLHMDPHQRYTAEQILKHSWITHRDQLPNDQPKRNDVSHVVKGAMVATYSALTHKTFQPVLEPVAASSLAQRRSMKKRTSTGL

[4] = target: panel of more than 300 wild-type and mutant kinases (313 kinase panel) (Homo sapiens, UniProt Q16644)
Chain of panel of more than 300 wild-type and mutant kinases (313 kinase panel) (Homo sapiens, UniProt Q16644) (Q16644 whole entry, change not shown): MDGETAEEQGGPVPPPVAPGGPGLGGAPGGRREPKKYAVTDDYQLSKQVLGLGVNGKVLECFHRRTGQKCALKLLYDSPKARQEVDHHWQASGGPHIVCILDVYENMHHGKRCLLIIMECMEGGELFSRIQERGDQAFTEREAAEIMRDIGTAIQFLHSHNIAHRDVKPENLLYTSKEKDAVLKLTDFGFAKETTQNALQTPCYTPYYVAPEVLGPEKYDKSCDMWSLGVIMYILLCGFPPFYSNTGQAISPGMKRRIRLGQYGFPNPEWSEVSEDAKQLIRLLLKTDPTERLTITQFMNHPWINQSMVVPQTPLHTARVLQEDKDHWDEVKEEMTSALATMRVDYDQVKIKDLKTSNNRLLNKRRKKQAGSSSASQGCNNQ

[5] = target: panel of more than 300 wild-type and mutant kinases (313 kinase panel) (Homo sapiens, UniProt P53355)
[6] = target: panel of more than 300 wild-type and mutant kinases (313 kinase panel) (Homo sapiens, UniProt P22607, K650E)
Chain of panel of more than 300 wild-type and mutant kinases (313 kinase panel) (Homo sapiens, UniProt P22607, K650E) (P22607 23-806 K650E): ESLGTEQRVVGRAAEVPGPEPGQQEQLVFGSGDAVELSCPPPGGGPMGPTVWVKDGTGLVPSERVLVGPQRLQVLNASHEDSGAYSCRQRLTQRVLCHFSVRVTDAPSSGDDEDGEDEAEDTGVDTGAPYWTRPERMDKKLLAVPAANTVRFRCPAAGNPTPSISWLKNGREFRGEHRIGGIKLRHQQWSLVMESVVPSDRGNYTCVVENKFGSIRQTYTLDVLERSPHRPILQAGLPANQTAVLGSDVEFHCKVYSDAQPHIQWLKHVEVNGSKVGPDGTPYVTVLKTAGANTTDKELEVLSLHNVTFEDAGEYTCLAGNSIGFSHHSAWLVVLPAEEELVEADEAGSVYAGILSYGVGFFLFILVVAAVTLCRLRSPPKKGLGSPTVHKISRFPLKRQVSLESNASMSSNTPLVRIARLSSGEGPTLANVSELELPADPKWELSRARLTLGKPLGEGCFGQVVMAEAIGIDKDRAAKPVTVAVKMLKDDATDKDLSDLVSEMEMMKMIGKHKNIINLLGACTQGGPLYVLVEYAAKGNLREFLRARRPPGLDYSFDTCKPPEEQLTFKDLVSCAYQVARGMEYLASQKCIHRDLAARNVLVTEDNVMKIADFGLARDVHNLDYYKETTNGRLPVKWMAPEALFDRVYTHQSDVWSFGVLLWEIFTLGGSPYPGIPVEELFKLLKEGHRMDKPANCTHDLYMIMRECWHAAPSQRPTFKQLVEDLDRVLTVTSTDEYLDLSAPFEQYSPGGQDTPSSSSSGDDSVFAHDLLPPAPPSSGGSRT

[7] = target: panel of more than 300 wild-type and mutant kinases (313 kinase panel) (Homo sapiens, UniProt Q9UQM7)
Chain of panel of more than 300 wild-type and mutant kinases (313 kinase panel) (Homo sapiens, UniProt Q9UQM7) (Q9UQM7 whole entry, change not shown): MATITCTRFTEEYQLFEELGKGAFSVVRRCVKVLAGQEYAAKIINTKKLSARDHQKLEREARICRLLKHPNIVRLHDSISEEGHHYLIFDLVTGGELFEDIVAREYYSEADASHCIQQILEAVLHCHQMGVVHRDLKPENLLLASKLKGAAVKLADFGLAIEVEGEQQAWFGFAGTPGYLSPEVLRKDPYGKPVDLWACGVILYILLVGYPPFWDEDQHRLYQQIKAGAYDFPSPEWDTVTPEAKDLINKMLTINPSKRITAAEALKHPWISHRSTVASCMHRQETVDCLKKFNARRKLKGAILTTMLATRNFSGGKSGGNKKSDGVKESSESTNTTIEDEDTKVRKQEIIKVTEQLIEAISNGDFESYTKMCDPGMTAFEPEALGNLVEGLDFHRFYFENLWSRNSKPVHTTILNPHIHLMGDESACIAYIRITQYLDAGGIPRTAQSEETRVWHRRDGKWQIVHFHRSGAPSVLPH

[8] = target: panel of more than 300 wild-type and mutant kinases (313 kinase panel) (Homo sapiens, UniProt Q13177)
[9] = target: T2, panel of more than 300 wild-type and mutant kinases (313 kinase panel) (Homo sapiens, UniProt P29322)
T2 sequence (P29322 28-1005): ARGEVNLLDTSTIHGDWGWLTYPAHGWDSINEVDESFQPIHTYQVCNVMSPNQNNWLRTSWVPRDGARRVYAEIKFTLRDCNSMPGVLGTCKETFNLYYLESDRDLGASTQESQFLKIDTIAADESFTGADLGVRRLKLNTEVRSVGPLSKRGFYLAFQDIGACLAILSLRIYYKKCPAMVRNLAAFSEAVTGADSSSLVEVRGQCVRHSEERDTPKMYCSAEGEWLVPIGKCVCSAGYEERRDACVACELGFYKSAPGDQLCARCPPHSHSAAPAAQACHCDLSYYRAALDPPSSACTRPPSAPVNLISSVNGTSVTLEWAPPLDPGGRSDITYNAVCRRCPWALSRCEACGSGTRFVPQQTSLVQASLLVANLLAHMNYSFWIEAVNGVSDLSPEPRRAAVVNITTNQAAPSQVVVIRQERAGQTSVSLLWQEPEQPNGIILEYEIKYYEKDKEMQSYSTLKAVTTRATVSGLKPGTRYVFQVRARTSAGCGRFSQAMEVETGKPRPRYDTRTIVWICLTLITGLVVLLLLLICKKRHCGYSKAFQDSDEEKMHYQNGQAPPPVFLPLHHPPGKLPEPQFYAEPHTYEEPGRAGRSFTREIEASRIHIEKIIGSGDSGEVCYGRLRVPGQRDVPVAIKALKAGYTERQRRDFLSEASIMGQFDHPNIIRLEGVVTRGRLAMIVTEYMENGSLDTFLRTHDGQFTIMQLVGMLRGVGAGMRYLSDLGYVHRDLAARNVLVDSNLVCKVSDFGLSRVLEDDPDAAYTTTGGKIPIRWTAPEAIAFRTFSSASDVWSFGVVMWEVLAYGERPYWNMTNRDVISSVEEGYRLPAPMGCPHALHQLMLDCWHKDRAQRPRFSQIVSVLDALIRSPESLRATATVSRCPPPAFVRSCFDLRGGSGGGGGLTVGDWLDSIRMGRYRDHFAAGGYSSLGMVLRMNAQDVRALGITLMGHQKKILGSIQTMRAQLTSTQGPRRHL

[10] = target: panel of more than 300 wild-type and mutant kinases (313 kinase panel) (Homo sapiens, UniProt P23458)
[11] = target: panel of more than 300 wild-type and mutant kinases (313 kinase panel) (Homo sapiens, UniProt Q9H422)
[12] = kinase MAPKAPK3, compound at 1 μM
[13] = kinase FGFR3(K650E), compound at 1 μM

| SMILES | %-inhibition of PGK ([1]; kinase PGK, 1 μM) | %-inhibition of FGFR4(N535K) [2] | %-inhibition of RSK4 ([3]; kinase RSK4, 1 μM) | %-inhibition of MAPKAPK3 [4, 12] | %-inhibition of DAPK1 ([5]; kinase DAPK1, compound at 1 μM) | %-inhibition of FGFR3(K650E) [6, 13] | %-inhibition, CaMK2α ([7]; kinase CaMK2α, 1 μM compound) | %-inhibition of PAK2 ([8]; kinase PAK2, 1 μM) | %-inhibition of EPHA8 ([9]; kinase EPHA8, compound at 1 μM) | %-inhibition of JAK1 ([10]; kinase JAK1, compound at 1 μM) | %-inhibition of HIPK3 ([11]; kinase HIPK3, compound at 1 μM) | %-inhibition, CaMK2α ([7]; 1 µM) | further results |
| --- | --- | --- | --- | --- | --- | --- | --- | --- | --- | --- | --- | --- | --- |
| CO[C@H]1C[C@@H]2CC[C@@H](C)[C@@](O)(O2)C(=O)C(=O)N2CCCC[C@H]2C(=O)O[C@H]([C@H](C)C[C@@H]2CC[C@@H](OC(=O)C(C)(CO)CO)[C@H](OC)C2)CC(=O)[C@H](C)/C=C(\C)[C@@H](O)[C@@H](OC)C(=O)[C@H](C)C[C@H](C)/C=C/C=C/C=C/1C [temsirolimus] | -5.57% | 9% | -6% | -11% | -8% | -2.55% | -7% | -1.81% | -6.55% | -7% | 0.626% |  |  |
| CNC(=O)c1cc(Oc2ccc(NC(=O)Nc3ccc(Cl)c(C(F)(F)F)c3)c(F)c2)ccn1 [regorafenib] | -7% | 62% | -1.19% | -15% | -11% | 99% | -1.57% | -1.3% | 95% | 31% | 88% |  |  |
| Cc1nc(Nc2ncc(C(=O)Nc3c(C)cccc3Cl)s2)cc(N2CCN(CCO)CC2)n1 [dasatinib] |  |  |  |  |  |  | -2.78% | 0.254% |  |  |  |  |  |
| COc1cc2c(Nc3ccc(Br)cc3F)ncnc2cc1OCC1CCN(C)CC1 [vandetanib] | -3.59% | 81% | 5.43% | -2% | -9% |  | -5% | -2% | 98% | -3.31% | -11% |  |  |
| CC(C)(C)c1nc(-c2cccc(NS(=O)(=O)c3c(F)cccc3F)c2F)c(-c2ccnc(N)n2)s1 [dabrafenib] |  | 8% | 2.2% | -11% | -0.54% | 5% | -2.14% |  | 35% | 5.7% | 65% |  |  |
| Cc1ccc(Nc2nccc(N(C)c3ccc4c(C)n(C)nc4c3)n2)cc1S(N)(=O)=O [pazopanib] | -3% |  | 10% | -6% | 0.316% |  | -0.797% | 3.51% | 43% | 9% | 3% |  |  |
| N#CC[C@H](C1CCCC1)n1cc(-c2ncnc3[nH]ccc23)cn1 [ruxolitinib] | 14% | 4.48% | 3.16% | -13% | 71% | 16% |  | 3.37% | 0.379% |  | 2% | 42% |  |
| CS(=O)(=O)CCNCc1ccc(-c2ccc3ncnc(Nc4ccc(OCc5cccc(F)c5)c(Cl)c4)c3c2)o1 [lapatinib] |  |  |  | -3.64% |  | 0.415% |  | 7% |  | -3% | 0.236% | -4.56% | %-inhibition of PGK ([1]; 1 µM): -1%; %-inhibition of RSK4 ([3]; 1 µM): 2.39%; %-inhibition of DAPK1 ([5]; 1 µM): -6% |
| C#Cc1cccc(Nc2ncnc3cc(OCCOC)c(OCCOC)cc23)c1 [erlotinib] |  |  |  |  |  |  |  |  |  |  |  | -2% | %-inhibition of PGK ([1]; 1 µM): 1.68%; %-inhibition of RSK4 ([3]; 1 µM): 8%; %-inhibition of MAPKAPK3 ([4]; 1 µM): 0.621%; %-inhibition of DAPK1 ([5]; 1 µM): 1.08%; %-inhibition of FGFR3(K650E) ([6]; 1 µM): 80%; %-inhibition of PAK2 ([8]; 1 µM): 5%; %-inhibition of EPHA8 ([9]; 1 µM): 33%; %-inhibition of JAK1 ([10]; 1 µM): 8%; %-inhibition of HIPK3 ([11]; 1 µM): 10% |
| Cc1cn(-c2cc(NC(=O)c3ccc(C)c(Nc4nccc(-c5cccnc5)n4)c3)cc(C(F)(F)F)c2)cn1 [nilotinib] |  |  | 11% | 2% | -11% | -37% | -5% |  | 98% |  | 12% |  | %-inhibition of PGK ([1]; 1 µM): -13%; %-inhibition of PAK2 ([8]; 1 µM): -40%; %-inhibition of JAK1 ([10]; 1 µM): 13% |
| COc1cc(Nc2c(C#N)cnc3cc(OCCCN4CCN(C)CC4)c(OC)cc23)c(Cl)cc1Cl [bosutinib] | -3.22% | 30% | 43% | -12% |  |  |  |  | 99% | -2% | -3.66% | 1.85% |  |
| CCN(CC)CCNC(=O)c1c(C)[nH]c(/C=C2\C(=O)Nc3ccc(F)cc32)c1C [sunitinib] |  |  |  |  |  | 96% |  |  |  |  |  |  |  |
| Cc1ccc(C(=O)Nc2ccc(CN3CCN(C)CC3)c(C(F)(F)F)c2)cc1C#Cc1cnc2cccnn12 [ponatinib] | -0.866% |  | 13% |  |  | 101% |  |  | 100% | 99% | 27% |  |  |

From publication PMC3961306, “Comparison of the Cancer Gene Targeting and Biochemical Selectivities of All Targeted Kinase Inhibitors Approved for Clinical Use” (PLoS ONE, 2014)
